In patent publication US20190248834A1, “ENDOMORPHIN-2, TETRAPEPTIDE DERIVATIVES THEREOF, AND USES THEREOF” (priority 2016, published 2019):
Non-standard residues stand in square brackets, D forms with d. pGlu = O=C1CC[C@@H](C(=O)O)N1

Tests used:
Assay type in all cases: in vivo, human
[1] = tested on: herpes zoster pain; experiment: Example 6: analgesic effect on viral infection, topical
From the text: A subject had herpes zoster on a temporal branch of the tri-geminal nerve with severe clinical pain involving the areas of left temporal, left forehead, left scalp, left neck, and left ear canal. Touching the left anterior scalp hair provoked severe pain.
The subject topically administered an anhydrous composition containing 0.5% (w/v) N-Ac-Tyr-Pro-Phe-Phe-NH2 (SEQ ID NO: 23) in EP73, formulated as described in Example 2, by applying a few drops to wet the skin surface. […] The pain relief lasted for up to 1 hour. Multiple repeated topical applications of the anhydrous composition containing 0.5% (w/v) N-Ac-Tyr-Pro-Phe-Phe-NH2 (SEQ ID NO: 23) in EP73 gave the same analgesic result with 4+ relief of pain according to clinical evaluation, and also for longer periods of up to 6 hours.

[2] = tested on: jammed middle finger, pain and swelling; experiment: Example 15: analgesic effect on injured fingers, topical; conditions: 1% (w/v) in WEP442, topical
From the text: A subject, jammed their middle finger causing severe pain and swelling (inflammation). The subject topically applied a composition containing 1% (w/v) N-Ac-Tyr-Pro-Phe-Phe-NH2 ([…]) in WEP442 to the affected finger.

[3] = tested on: severe arthritis of the left hip; experiment: Example 18: analgesic effect on arthritic hip, topical
Description: A subject had severe arthritis of the left hip with pain and inflammation for 6 months.
The subject topically applied a composition containing 0.7% (w/v) N-Ac-Tyr-Pro-Phe-Phe-NH2 (SEQ ID NO: 23) in WEP442 to the left hip and covered the hip with plastic wrap overnight. The pain reduced about 50% in 8 hours. The samen procedure was repeated the following day. […] The analgesic effect observed was 100% improvement as judged by clinical evaluation.

[4] = tested on: very severe headaches with nausea and vomiting; experiment: Example 24: analgesic effect on severe headaches, topical
From the text: A subject had very severe headaches and associated nausea and vomiting, which occurred 1-2 times weekly. […] Over this interval, the frequency of headaches decreased to every 7-10 days, and the intensity of pain at the onset of each episode was diminished.

[5] = tested on: dental pain after filling; experiment: Example 27: analgesic effect on dental pain, applied to tooth and gum
Description: A subject, experienced substantial pain in an upper left retro-molar that started 3 hours after having a dental filling procedure done on the tooth. The pain became more intense over the ensuing hours, at which time they applied to the tooth and gum using a cotton tipped applicator a composition containing 1% (w/v) of N-Ac-Tyr-Pro-Phe-Phe-NH2 (SEQ ID NO: 23) in WEP442. […] Re-application of the composition provided the same relief for the same duration.

[6] = tested on: sunburn pain; experiment: Example 30: analgesic effect on sunburn pain, topical; conditions: 1% (w/v) in WEP442, topical
From the text: A subject with severe sunburn of their anterior legs the day after exposure to sunlight without sunscreen protection, topically applied a composition containing 1% (w/v) of N-Ac-Tyr-Pro-Phe-Phe-NH2 (SEQ ID NO: 23) in WEP442 to both legs.

[7] = tested on: knee pain; experiment: Example 32: analgesic effect on knee pain after housework, topical; conditions: 1% (w/v) in WEP442, topical
From the text: A subject with discomforting knee pain in the evening after cleaning their own house for several hours topically applied a composition containing 1% (w/v) of N-Ac-Tyr-Pro-Phe-Phe-NH2 (SEQ ID NO: 23) in WEP442.

[8] = tested on: pain at injection sites; experiment: Example 39: analgesic effect on pain at site of subcutaneous injection of hyaluronic acid, topical; conditions: 1% (w/v) in WEP442, topical
From the text: A subject, experienced substantial pain in the zygomatic-facial areas, sites injected subcutaneously with a hyaluronic acid product (Restylane) six hours earlier for the cosmetic purpose of plumping up the skin.

[9] = tested on: chronic knee pain; experiment: Example 46: analgesic effect on chronic knee pain from post-trauma, topical; conditions: 1% (w/v) in WEP442, topical
From the text: Onset of pain occurred in adulthood […], worsening to a level that compromised their performance as a hospital nurse.

[10] = tested on: psoriatic arthritis; experiment: Example 73: analgesic effect on psoriatic arthritis of hands, fingers and ankles, topical; conditions: 0.5% (w/v) in WEP442, topical
From the text: A subject had psoriatic arthritis of the hands and finger joints and ankle joints for 4 years.

[11] = tested on: psoriatic arthritis of the fingers; experiment: Example 79: analgesic effect on psoriatic arthritis, topical; conditions: 0.5% (w/v) in WEP442, topical once daily
From the text: A subject, presented with psoriatic arthritis of the fingers that was particularly painful in the right index finger joint and proximal joint of the left thumb.

[12] = tested on: severe pain on the left hip; experiment: Example 89: analgesic effect on hip pain, topical; conditions: 1% (w/v) in WEP442, topical
From the text: A subject had severe lumber stenosis (lower back arthritis) for about 3 years caused by a fall from a ladder 7 years earlier. The subject had been pain free from lower back arthritis due to weekly acupuncture treatment, usually at 10 AM every Tuesday. On one Friday evening, the subject suddenly developed severe pain on the left hip and the pain persisted.

[13] = tested on: headache; experiment: Example 44: analgesic effect on headache, topical
From the text: A subject, experienced a headache that began on the right temporofrontal area. Within about a half hour the headache pain area expanded to include the left temporofrontal area and both orbital areas. The intensity of pain increased simultaneously to a degree that caused them to remove themself from their sedentary occupation. Available to them was a composition containing 1% (w/v) of N-Pg-Tyr-Pro-Phe-Phe-NH2 (SEQ ID NO: 44) in WEP442, which they topically applied to all the above areas, keeping their eyes closed until the lids dried. Pain relief was detected after about 5 minutes, at which time a second application of the solution was made. Within another 5 minutes, pain relief was substantial, allowing them to return to their occupation.

[14] = tested on: headache; experiment: Example 65: analgesic effect on headache, topical; conditions: 0.6% (w/v) in WEP442, topical
From the text: Several days after the incident causing the injury, they developed a bothersome headache, concentrated to the temporal areas.

[15] = 0.5% (w/v) in EP73, multiple repeated topical applications

CC(=O)N[C@@H](Cc1ccc(O)cc1)C(=O)N1CCC[C@H]1C(=O)N[C@@H](Cc1ccccc1)C(=O)N[C@@H](Cc1ccccc1)C(N)=O [N-Ac-Tyr-Pro-Phe-Phe-NH2]
duration of pain relief [1, 15]: up to 6 hours
relief of pain according to clinical evaluation [1, 15]: 4+ (4+ (90-100%): complete relief or eradication of pain for more than 4 hours)
pain relief ([1]; 0.5% (w/v) in EP73, topical): pain disappeared completely
time to pain relief ([1]; 0.5% (w/v) in EP73, topical): Within about a minute
duration of pain relief ([1]; 0.5% (w/v) in EP73, topical, first application): up to 1 hour
relief of pain and swelling [2]: pain and much of the swelling disappeared
time to relief [2]: almost immediately
improvement by clinical evaluation ([3]; 0.7% (w/v) in WEP442, procedure repeated the following day, another 8 hours): 100%
pain reduction ([3]; 0.7% (w/v) in WEP442, under plastic wrap overnight, in 8 hours): about 50%
frequency of headaches (interval between headaches) ([4]; 1% (w/v) in WEP442, repeated uses over 3 months, before: 1-2 times weekly): 7 to 10 days
time to pain relief ([4]; 1% (w/v) in WEP442, topical): 3 to 4 min
pain relief ([4]; 1% (w/v) in WEP442, topical at onset of symptoms): completely relieve pain and any associated symptoms
duration of pain relief ([5]; 1% (w/v) in WEP442): about 3 hours
time to pain relief ([5]; 1% (w/v) in WEP442): ≤ 1 min
pain relief ([5]; 1% (w/v) in WEP442, applied to tooth and gum): pain ceased completely
duration of pain relief [6]: about 3 hours
pain relief [6]: completely relieved almost instantly
duration of pain relief [7]: 5 to 7 h
pain relief [7]: Total relief of pain
time to pain relief [7]: ≤ 1 min
pain relief [8]: completely relieved the pain
recurrence [8]: did not return
time to pain relief [8]: ≤ 1 min
duration of absence of pain [9]: 8 h
pain relief [9]: complete absence of pain
duration of pain relief [10]: approximately 6 hours
pain relief [10]: almost complete relief of pain
duration of pain relief [11]: 8 h
pain relief [11]: complete relief of pain
analgesic effect grade [12]: 4+ (4+ (90-100%): complete relief or eradication of pain for more than 4 hours)
pain relief [12]: the pain disappeared
time to pain relief [12]: about 2 minutes
time without return of pain [12]: > 12 h

N-Pg-Tyr-Pro-Phe-Phe-NH2 ([pGlu]YPFF-NH2; SMILES NC(=O)[C@H](Cc1ccccc1)NC(=O)[C@H](Cc1ccccc1)NC(=O)[C@@H]1CCCN1C(=O)[C@H](Cc1ccc(O)cc1)NC(=O)[C@@H]1CCC(=O)N1)
pain relief ([13]; 1% (w/v) in WEP442, after second application): Total relief of pain
time to detected pain relief ([13]; 1% (w/v) in WEP442, first topical application): about 5 minutes
recurrence ([13]; 1% (w/v) in WEP442, topical): no recurrence of pain
headache relief [14]: almost immediate, complete relief of the headache
